{"source": "patent US8486634B2", "about": "“Amplifying bisulfite-treated template” (Ambergen, Inc., priority 2007, dated 2013)", "biological_target": "T1, protein kinase Cα (PKCα) (Homo sapiens, UniProt P17252)", "T1 construct": "isolate and photo-release endogenous PKCα from the undiluted detergent fractionated HeLa cell extracts; endogenous in cells; host or cells: HeLa cells (ATCC)", "test": "Phorbol ester (PMA) mediated PKCα sub-cellular translocation, measured by kinase activity after isolation with photocleavable antibodies", "assay_type": "cell-based", "conditions": "cultured HeLa cells stimulated with 200 nM PMA for 5 min, detergent-fractionated, relative distribution based on kinase activity, n=4", "procedure": "FIG. 20. Phorbol ester (PMA) mediated protein kinase Cα (PKCα) sub-cellular translocation as measured by functional activity following isolation with photocleavable antibodies. Cultured HeLa cells were stimulated with 200 nM PMA for 5 min and detergent fractionated into the cytosol and membrane compartments prior to isolation and purification with the photocleavable antibodies.\nCultured HeLa cells (ATCC; Manassas, Va.) were stimulated for 5 min with 200 nM Phorbol-12-Myristate-13-Acetate (PMA; EMD Biosciences, Inc., San Diego, Calif.) and subsequently detergent fractionated into sub-cellular compartments according to reported procedures [Ramsby et al. (1994) Electrophoresis 15, 265-277; Ramsby & Makowski. (1999) Methods Mol Biol 112, 53-66; Chiang et al. (2000) J Biochem Biophys Methods 46, 53-68]. PMA is a potent activator of PKCα and is well known to cause translocation of the kinase from the cytosolic to the membrane sub-cellular compartments [Ross & Joyner. (1997) Endothelium 5, 321-332; Bazan & Rapoport. (1996) J Pharmacol Toxicol Methods 36, 87-95; Yazlovitskaya & Melnykovych. (1995) Cancer Lett 88, 179-183]. […]", "data": [{"smiles": "CCCCCCCCCCCCCC(=O)O[C@@H]1[C@@H](C)[C@@]2(O)[C@@H](C=C(CO)C[C@]3(O)C(=O)C(C)=C[C@@H]23)[C@@H]2C(C)(C)[C@]12OC(C)=O", "note": "[PMA, Phorbol-12-Myristate-13-Acetate]", "values": [{"measurement": "PKCα distribution, membrane", "setting": "baseline 21±2% membrane", "result": "84±3", "unit": "%"}, {"measurement": "PKCα distribution, cytosol", "setting": "baseline 79±7% cytosol", "result": "16±4", "unit": "%"}]}]}
